Assays:
[1] = system: NR2A subunit of the NMDAR; assay: Western blotting of hippocampus after fear memory recall; assay type: in vivo, mice; conditions: one week prior to CFC, (R,S)-ketamine 30 mg/kg, FENM 20 mg/kg, vs saline
Protocol: Samples from mouse hippocampus and prefrontal cortex were dissected, snap frozen, and stored at −80° C. Brain tissue was homogenized in RIPA buffer with protease inhibitor (Thermo Fisher Scientific, Waltham, Mass.; Roche, Basel, Switzerland) using a motorized pestle mixer (Argos Technologies, Vernon Hills, Ill.) and spun at 1000 g×14 minutes to remove cell debris. Protein concentration was determined using a Bradford protein assay (Bio-Rad, Hercules, Calif.). 4× Laemmli buffer and β-mercaptoethanol (Bio-Rad, Hercules, Calif.) was added to the samples, which were then boiled at 90° C. for five minutes. 50 μg of each sample was separated by SDS/PAGE, and proteins were transferred onto PVDF membrane (GE Healthcare Life Sciences, Marlborough, Mass.). Membranes were then blocked in 1×TBS with 0.1% Tween-20 and 5% BSA for 1 hr at RT. Incubation with primary antibodies was performed at 4° C. overnight (rabbit anti-β-tubulin, 1:10000, Abc am, Cambridge, UK, ab6046; rabbit anti-NR2A, 1:1000, Alomone Labs, Jerusalem, Israel, AGC-002; rabbit anti-NR2B, 1:600, Alomone Labs, Jerusalem, Israel, AGC-003; mouse anti-GluR1, 1:1000, Millipore Sigma, Burlington, Mass., MAB2263) in 1×TBS with 0.1% Tween-20 and 5% BSA. […]

[2] = system: 129S6/SvEv mice; assay: Contextual fear conditioning (CFC), 3-shock; freezing; assay type: in vivo; conditions: for p, Freezing (%), CFC Re-exposure 2, Saline vs. drug: drug 5 min after re-exposure 1; for Behavior: Fear: dose 30 mg/kg
Protocol: A 3-shock CFC paradigm was administered as previously described (45, 46). CFC was conducted in chambers obtained from Med Associates (St. Albans, Vt.), with internal dimensions of approximately 20 cm wide×16 cm deep×20.5 cm high. The chambers had metal walls on each side, clear plastic front and back walls and ceilings, and stainless-steel bars on the floor. A house light (CM1820 bulb, 28v, 100 mA) mounted directly above the chamber provided illumination. Each chamber was located inside a larger, insulated, plastic cabinet that provided protection from outside light and noise. Each cabinet contained a ventilation fan that was operated during the sessions. A paper towel dabbed with lemon solution was placed underneath the chamber floor. Mice were held outside the experimental room in their home cages prior to testing and transported to the conditioning apparatus individually in standard mouse cages Chambers were cleaned with 70% EtOH between each set of mice. Mice were placed into the conditioning chamber and received shocks at 180 s, 240 s, and 300 s (2 s duration, 0.75 mA). Fifteen seconds after the last shock, mice were removed from the chamber. Overall, the training session lasted 317 s. […] All sessions were scored for freezing using FreezeFrame4.

[3] = system: 129S6/SvEv mice; assay: Anxiety-like behavior, summary of anxiety tests (OF, MB, EPM); assay type: in vivo; conditions: (R,S)-ketamine 30 mg/kg, FENM 20 mg/kg, vs saline
Protocol: Testing was performed as previously described (47). Briefly, the maze is a plus-cross-shaped apparatus consisting of four arms, two open and two enclosed by walls, linked by a central platform at a height of 50 cm from the floor. Mice were individually placed in the center of the maze facing an open arm and were allowed to explore the maze for 5 min. The time spent in and the number of entries into the open arms was used as an anxiety index. Videos were scored using ANY-maze behavior tracking software (Stoelting, Wood Dale, Ill.).
The OF assay was administered as previously described (47). Briefly, motor activity was quantified in 4 Plexiglas open field boxes 43×43 cm^2 (MED Associates, Georgia, Vt.). Two sets of 16 pulse-modulated infrared photobeams on opposite walls 2.5-cm apart recorded x-y ambulatory movements. Activity chambers were computer interfaced for data sampling at 100-ms resolution. The computer defined grid lines that dividing center and surround regions, with the center square consisting of four lines 11 cm from the wall.
The MB assay was conducted in a clean cage (10.5 in×5.5 in) containing soft pliable Beta Chip bedding (Northeastern Products Corp, Warrensburg, N.Y.). The cage contained 16 marbles set up in 4 rows of 4 across. Mice were given 30 minutes to explore and bury. At the end of the assay, the percentage of marbles buried was calculated.

[4] = 30 mg/kg, drug 1 week before stress, FIG. 1C
[5] = 30 mg/kg, drug 5 minutes after stress, FIG. 2C
[6] = 5 min prior to CFC, (R,S)-ketamine 30 mg/kg, FENM 20 mg/kg, vs saline
[7] = Saline vs. (R,S)-ketamine (30 mg/kg), FIG. 8D
[8] = Saline vs. (R,S)-ketamine (30 mg/kg), FIG. 8F

CNC1(c2ccccc2Cl)CCCCC1=O (racemic) [(R,S)-ketamine, reference compound]
NR2A expression in the hippocampus [1]: comparable | p, Fisher's LSD Saline vs. drug, CFC Re-exposure Freezing Min 1 (%) [2, 4]: 0.0101 | p, Fisher's LSD Saline vs. drug, CFC Re-exposure Freezing Min 2 (%) [2, 4]: 0.0012 | p, Fisher's LSD Saline vs. drug, CFC Re-exposure Freezing Min 3 (%) [2, 4]: 0.0320 | p, Fisher's LSD Saline vs. drug, CFC Re-exposure Freezing Min 4 (%) [2, 4]: 0.0592 | p, Fisher's LSD Saline vs. drug, CFC Re-exposure Freezing Min 5 (%) [2, 4]: 0.4016 | p, Fisher's LSD Saline vs. drug, CFC Re-exposure Freezing (%) ([2]; 30 mg/kg, drug 1 week before stress, after ANOVA, FIG. 1D): 0.0086 | p, Fisher's LSD Saline vs. drug, CFC Re-exposure Freezing (%) ([2]; 30 mg/kg, drug 1 week before stress, after RMANOVA, FIG. 1C): 0.0086 | p, Fisher's PLSD Saline vs. drug, CFC Re-exposure Freezing Min 1 (%) [2, 5]: 0.6701 | p, Fisher's PLSD Saline vs. drug, CFC Re-exposure Freezing Min 2 (%) [2, 5]: 0.0587 | p, Fisher's PLSD Saline vs. drug, CFC Re-exposure Freezing Min 3 (%) [2, 5]: 0.1358 | p, Fisher's PLSD Saline vs. drug, CFC Re-exposure Freezing Min 4 (%) [2, 5]: 0.5515 | p, Fisher's PLSD Saline vs. drug, CFC Re-exposure Freezing Min 5 (%) [2, 5]: 0.1641 | p, Fisher's PLSD Saline vs. drug, CFC Re-exposure Freezing (%) ([2]; 30 mg/kg, drug 5 minutes after stress, after RMANOVA, FIG. 2C): 0.4342 | fear expression during CFC re-exposure ([2]; 1 week prior to CFC, (R,S)-ketamine 30 mg/kg, FENM 20 and 30 mg/kg, vs saline): decreased fear expression | fear expression during re-exposure 2 ([2]; 5 min after context re-exposure 1 (24 h before re-exposure 2), (R,S)-ketamine 30 mg/kg, FENM 20 mg/kg, vs saline): but not (R,S)-ketamine, significantly decreased | fear expression during CFC re-exposure 1 [2, 6]: significantly decreased fear expression | fear expression during CFC re-exposure 2 [2, 6]: significantly decreased fear expression | freezing during CFC training [2, 6]: significantly increased freezing | p, Freezing (%), CFC Re-exposure 2, Saline vs. drug ([2]; Fisher's LSD after ANOVA, FENM 20 mg/kg, (R,S)-ketamine 30 mg/kg, FIG. 4G): 0.9122 | p, Freezing (%), CFC Re-exposure 2, Saline vs. drug ([2]; Fisher's LSD after RMANOVA, FENM 20 mg/kg, ketamine 30 mg/kg, FIG. 4F): 0.9122 | p, Freezing (%), CFC Training, Saline vs. drug ([2]; Fisher's LSD after RMANOVA, drug 5 min before CFC, (R,S)-ketamine 30 mg/kg, FENM dose lies beyond the rows shown, FIG. 8B): 0.0024 | Behavior: Fear ([2]; Prophylactic (5 min before stress)): ↓ | Behavior: Fear ([2]; Prophylactic (7 days before stress)): ↓ | CFC Training, Average Freezing, p (Fisher's LSD) ([2]; Saline vs. (R,S)-ketamine (30 mg/kg), FIG. 8C): 0.0024 | CFC Re-exposure 1, Freezing Min 1 (%), p (Fisher's LSD) [2, 7]: 0.0066 | CFC Re-exposure 1, Freezing Min 2 (%), p (Fisher's LSD) [2, 7]: <0.0001 | CFC Re-exposure 1, Freezing Min 3 (%), p (Fisher's LSD) [2, 7]: <0.0001 | CFC Re-exposure 1, Freezing Min 4 (%), p (Fisher's LSD) [2, 7]: <0.0001 | CFC Re-exposure 1, Freezing Min 5 (%), p (Fisher's LSD) [2, 7]: <0.0001 | CFC Re-exposure 2, Freezing Min 1 (%), p (Fisher's LSD) [2, 8]: 0.4378 | CFC Re-exposure 2, Freezing Min 2 (%), p (Fisher's LSD) [2, 8]: 0.0304 | CFC Re-exposure 2, Freezing Min 4 (%), p (Fisher's LSD) [2, 8]: <0.0001 | CFC Re-exposure 2, Freezing Min 5 (%), p (Fisher's LSD) [2, 8]: <0.0001 | CFC Re-exposure 1, Freezing (%), p (Fisher's LSD) ([2]; Saline vs. (R,S)-ketamine (30 mg/kg), after ANOVA, FIG. 8E): <0.0001 | CFC Re-exposure 2, Freezing (%), p (Fisher's LSD) ([2]; Saline vs. (R,S)-ketamine (30 mg/kg), after ANOVA, FIG. 8G): <0.0001 | CFC Re-exposure 1, Freezing (%), p (Fisher's LSD) ([2]; Saline vs. (R,S)-ketamine (30 mg/kg), after RMANOVA, FIG. 8D): <0.0001 | CFC Re-exposure 2, Freezing (%), p (Fisher's LSD) ([2]; Saline vs. (R,S)-ketamine (30 mg/kg), after RMANOVA, FIG. 8F): <0.0001 | CFC Re-exposure 2, Freezing Min 3 (%), p (Fisher's LSD) ([2]; Saline vs. ketamine (30 mg/kg), FIG. 8F): 0.0033 | behavior during CFC training ([2]; one week prior to 3-shock CFC (c-fos / Western blot cohort), (R,S)-ketamine 30 mg/kg, FENM 20 mg/kg, vs saline): did not alter behavior | freezing upon re-exposure ([2]; one week prior to 3-shock CFC, re-exposed five days later, (R,S)-ketamine 30 mg/kg, FENM 20 mg/kg, vs saline): significantly reduced freezing | behavior in all anxiety tests, with the exception of the time spent in the center of the OF ([3]; 5 min after context re-exposure 1): did not alter behavior | behavior in all anxiety tests ([3]; 5 minutes prior to context re-exposure 1 (24 h after CFC)): did not alter behavior
